Assay results from PMC12135518 (Antimicrobial Agents and Chemotherapy, 2025).
Like-named read-outs stand apart in the source and are kept apart here.

Legend:
[1] = at equivalent dosages, cited from earlier work
Text: Different pharmacokinetic characteristics are anticipated in renal transplant patients depending on the unique physiologic status of these patients ([18], [19]). Moreover, in the early postoperative phase following kidney transplantation, patients undergo gradual recovery of renal function, accompanied by increased urine output and a rapid decline in serum creatinine levels, typically returning to normal within 2–4 weeks ([20][–][22]). […] In addition, renal transplant patients are mor ...

[2] = cited from earlier work
plasma albumin = settings: ref not given; cited from earlier work
Text: After that, a suitable maintaining dose should be employed to sustain the target concentration.

[3] = Population pharmacokinetic modeling of teicoplanin plasma concentrations (two-compartment model, Phoenix NLME, FOCE-ELS); assay type: in vivo, renal transplant patients
Protocol: This prospective study was conducted at the kidney transplantation department in the Second Xiangya Hospital of Central South University (Changsha, China). […] The exclusion criteria were as follows: (i) lack any of the demographic and laboratory data described below, (ii) unable to get the blood samples, and (iii) pregnancy. This study was approved by the Ethics Committee of the Second Xiangya Hospital, Central South University, and informed consent was obtained from all patients or legal representatives of the patients. The study employed a two-phase enrollment design to establish and validate the population PK model. Initial model development utilized patient data collected between January 2022 and December 2023. Following the establishment of the final population PK model, a distinct cohort of patients was prospectively recruited between November 2024 and March 2025 to conduct an external validation.
The supernatant was immediately stored at −80℃ until analysis.
Plasma samples (200 µL) were extracted by protein precipitation with MARG-1A (500 µL), after vortex oscillation for 1 minute, centrifugation at 14,500 r/min for 8 min, and 600 µL of the clear supernatant was transferred into autosampler vials for further analysis.
One-, two-, and three-compartment models with first-order elimination were evaluated as potential structural PK models based on changes in the objective function value (OFV, −2 × log-likelihood) and goodness-of-fit plots. The inter-individual variability of the PK parameters was evaluated using an exponential model. Residual variability was selected with additive, proportional, and combined error models:
The following patient covariates were tested for their influence on the PK parameters of teicoplanin: age, sex, body weight, ALT, AST, TBIL, DBIL, ALB, baseline, and real-time CrCL. The stepwise covariate modeling (SCM) approach was used to test the covariate model in this analysis. A reduction in OFVs of ≥3.84 was considered to be statistically significant (P < 0.05) for the inclusion of one covariate in the forward inclusion steps, and an increase in OFVs of ≥6.63 was considered to be statistically significant (P < 0.01) in the backward elimination steps.
The validity of the final model was assessed by visual inspection of goodness-of-fit (GoF) plots, including observed concentrations versus individual predictions (IPRED), observed concentrations versus population predictions (PRED), and conditional weighted residuals (CWRES) versus population predictions and time. Next, the accuracy and stability of the final model were evaluated using the bootstrap method. The medians and 95% confidence intervals of the PK parameter estimates were obtained from the 1,000 bootstrap runs. The model was considered stable if the typical population values for the PK parameters of the final model were within the 95% confidence interval of the bootstrap results, and the biases were less than 10% with no bias across zero.

MRSA = settings: patients achieving AUC24h/MIC ≥900; cited from earlier work
[4] = renal transplant patients, 306 plasma samples from 79 patients

Substance	incidence of neurological toxicity ([1]; other patients) [%]	incidence of pigment toxicity ([1]; other patients) [%]	incidence of neurological toxicity ([1]; renal transplant patients) [%]	incidence of pigment toxicity ([1]; renal transplant patients) [%]	distribution (volume) in previous models ([2]; mostly critically ill patients) [L]	CL in critically ill patients ([2]; previously reported values, critically ill patients, no ref printed at the value) [L/h]	plasma protein binding rate (plasma albumin)	CL, bootstrap estimate (median) ([3]; bootstrap method (n = 992)) [L/h]	CLd, bootstrap estimate (median) ([3]; bootstrap method (n = 992)) [L/h]	CrCLCL, bootstrap estimate (median) ([3]; bootstrap method (n = 992))	Vc, bootstrap estimate (median) ([3]; bootstrap method (n = 992)) [L]	Vp, bootstrap estimate (median) ([3]; bootstrap method (n = 992)) [L]	distribution (volume) in the present model ([3]; renal transplant patients) [L]	CLd, clearance between the central compartment and peripheral compartment (final model estimate) [3, 4] [L/h]	Vc, volume distribution in the central compartment (final model estimate) [3, 4] [L]	Vp, volume in the peripheral compartment (final model estimate) [3, 4] [L]	CL, clearance in the central compartment (final model estimate, typical value) ([3]; renal transplant patients, iv 400 mg q12h x3 then 400 mg once daily, 1 h infusion, 306 plasma samples from 79 patients, 2LC-MS/MS, CL=0.711×(CrCL÷17)^0.198) [L/h]	treatment success rate (MRSA) [%]
polymyxin B	27	15	63.4	51.5														
teicoplanin					60.5 to 121.1	0.838 to 1.03	about 90%	0.714	4.22	0.196	11.3	35	46.6	4.22	11.3	35.3	0.711	87
